Paper PMC12389442, “Towards a Consensus for the Analysis and Exchange of TFA as a Counterion in Synthetic Peptides and Its Influence on Membrane Permeation” (Pharmaceuticals, 2025)
Each block holds one compound with its values, some of them ahead of it.

Columns and labels:
[1] = not told
Experimental: (§1) To investigate the influence of TFA^− and Cl^− as counterions on the membrane permeation of synthetic peptides, a liposomal fluorescence assay was performed as previously described [37, 38]. The assay relies on the change in fluorescence of HPTS correlating to the liposomal internal pH change altered by permeation of an acidic or basic compound across the phospholipid bilayer. […] We first evaluated the impact of counterions on the permeation kinetics of the CPPs. Fitted biexponential curves and calculated log Permapp values are shown if the obtained normalized RMSE was <0.10. […] Control experiments with TFA and HCl are also shown for reference. […] To complement the CPP study, we also investigated peptides AT 1–4 in the permeation assay.
(§2) To investigate the influence of the counterions on the membrane permeability of peptides, a liposomal fluorescence assay was performed using a previously described method adapted to a plate reader [37, 38].

[2] = direct pH measurement of aqueous peptide salt solutions; type: physicochemical; settings: before exchange (TFA salt), about 2–2.4 mg/mL peptide salt
Description: Direct pH measurements of aqueous solutions of peptides present as TFA, as well as Cl salts, were acidic in a pH range below 3 (exact values can be found in the Supporting Information). […] Strong counterions as Cl^− and TFA^− may shield the positive charges and hydrogen bond donors, facilitating permeation as a net neutral complex. The complex then dissociates in the unbuffered internal liposomal phase, into a weak base (peptide) and a strong acid (HCl or TFA), resulting in the release of protons leading to acidification and a decrease in fluorescence. This assumption would align with the concept of hydrophobic ion pairing, described to enhance the membrane permeability of charged molecules in drug delivery. Our findings confirm results of previous studies that counterions cannot be neglected and the salt form might affect the membrane permeation behavior of peptides, among other things. Given that counterions are often unreported in the literature, we herein emphasize the need for explicit consideration and clarification in peptide-based permeation assays and further functional studies.
Table S8: pH measurements of AT1-4 peptide salt in aq. solution after exchange and lyophilization
Before Conc. peptide 2.38 2.38

[3] = counterion (TFA−, Cl−, Na+) content of peptide salt by HPLC-ELSD during HCl exchange; type: physicochemical
Experimental: The TFA^− content in samples was quantified using three analytical methods, namely FT-IR, ^19F-NMR, and HPLC-ELSD, adapted from previous publications. The methods are described in detail in the Supplementary Materials Section S2. In short, FT-IR spectra were recorded in aqueous solution at a wavelength from 4000 cm^−1 to 600 cm^−1 (PerkinElmer Inc., Waltham, MA, USA). The absorbance maxima in the TFA^− absorbance range of 1210 to 1190 cm^−1 were determined using Python (3.10.10, https://docs.python.org/3/reference (accessed 22 April 2024)). The ^19F-NMR (Bruker Avance III 400 MHz NMR spectrometer, Bremen, Germany) measurements were performed in 10% deuterium oxide (D2O; >99.9 atom% D, Apollo Scientific, Bredbury, United Kingdom) in H2O (nanopure water, in-house water purification system ELGA Purelab, Villmergen, Switzerland) and the signal areas were determined via auto-integration. The HPLC-ELSD (VWR ELITE Lachrome Series, Dietikon, Switzerland) method was used under isocratic conditions with a mobile phase consisting of 40% 20 mM ammonium formate (≥99%, Sigma Aldrich, Buchs, Switzerland) in H2O (pH 4.0) and 60% acetonitrile (ACN; HPLC gradient grade, ≥99.9%, Sigma Aldrich, Buchs, Switzerland). Separation was achieved on an Acclaim Trinity P1 column (3 mm × 100 mm, Thermo Fisher Scientific, Sunnyvale, CA, USA) allowing for the simultaneous detection of TFA^−, Cl^−, and Na^+. Retention times were determined by single injection of analytes and quantification performed via peak area. All analytical methods were validated according to the ICH guidelines. For each analysis method, calibrators with concentrations in the corresponding quantitative range for TFA^− (additionally, Na^+ and Cl^− for HPLC-ELSD) were prepared and aliquoted for each validation day (4 days for FT-IR and ^19F-NMR, 8 days for HPLC-ELSD). Quality control (QC) samples (QC low, med, and high) were prepared independently. All aliquots were stored at 5 °C. Over a period of 7 (FT-IR and ^19F-NMR) or 21 days (HPLC-ELSD), daily regression curves were determined using the generalized least squares regression model. For the ^19F-NMR and FT-IR method, a linear model was used, and for the HPLC-ELSD method a polynomial model. Weightings of x, 1/x, and 1/x^2 were considered for the calibration curves. The accuracy was determined by comparing the established concentration of the QC sample concentration and the theoretical concentration. Bias and intra- and inter-day precision (RSDR and RSDT) were calculated according to Peters et al.. […] The limit of detection (LoD) and limit of quantification (LoQ) for the FT-IR and ^19F-NMR methods were calculated according following ICH guidelines based on the standard deviation of the response and slope. As a quadratic regression curve was determined for the HPLC-ELSD method, LoD and LoQ were determined using the signal-to-noise approach. To assess the stability of the calibration curve, the concentration of the QCs for each day was recalculated with the calibration curve established on the first day and the bias was determined by comparison with the theoretical value calculated.
For the counterion exchange of TFA^− with Cl^−, the peptide salt was dissolved in a diluted aqueous HCl solution at a concentration of 1 mg/ml. […] To evaluate the influence of the peptide sequence, counterion exchange was also performed for AT 2, AT 3, and AT 4 with the optimally determined salt concentration of 10 mM. […]

[4] = peptide integrity during counterion exchange with aq. HCl, HPLC-UV; type: physicochemical
Experimental: As degradation issues in aqueous acidic solutions have been reported previously, the integrity of AT 1 during counterion exchange with the different concentrations of HCl was measured with HPLC-UV. […] Similar results could be found for all other peptides under investigation (Supplementary Materials Section S3). […] Nevertheless, the stability of the peptide as well as the counterion exchange efficacy may vary, depending on the peptide sequence. Therefore, the TFA^− content as well as the purity should always be confirmed after counterion exchange.
For the counterion exchange of TFA^− with Cl^−, the peptide salt was dissolved in a diluted aqueous HCl solution at a concentration of 1 mg/ml. […] To evaluate the influence of the peptide sequence, counterion exchange was also performed for AT 2, AT 3, and AT 4 with the optimally determined salt concentration of 10 mM. […] For all peptide samples, the content of counterions was measured by FT-IR, ^19F-NMR, and HPLC-ELSD before the exchange as well as after each lyophilization cycle (Ex 0, Ex 1, Ex 2, and Ex 3). […] HPLC-ELSD samples containing 0.75 mg/mL peptide salt in H2O were measured in triplicate with an injection volume of 5 and 20 µL. The purity of the samples was monitored during the counterion exchange with a 0.25 mg/mL peptide salt solution according to the purity method described below. […]

[5] = liposomal fluorescence assay (HPTS) for passive membrane permeation
Experimental: as §1, §2

[6] = cited from earlier work
[7] = at the concentrations used in the liposomal assay; cited from earlier work

permeation kinetics / fluorescence change (qualitative) [1]: biexponential kinetics were observed
Compound: H-KETWWETWWTEWSQPKKKRKV-OH [Pep1]
influence of type of counterion on passive permeation [1]: influence the amplitude of the permeation curve, although the overall log Permapp remained similar

passive membrane permeation (qualitative) ([5]; Cl salt): did not detect permeation | passive membrane permeation (qualitative) ([5]; TFA salt): showed passive permeation | Log Permapp ([5]; TFA salt, 50 µM peptide solution added to liposomes, outer phase pH 6.0, 28.5 °C, ± standard error of the fit, n = 3): -6.913 ± 0.048 cm/s
Compound: H-LLIILRRRIRKQAHAHSK-OH [pVEC, H2N-LLIILRRRIRKQAHAHSK-COOH]
hemolytic activity [6]: general hemolytic activity is described | POPC membrane disruption [7]: no POPC membrane disruption was observed

Second part, the compound before the results:

Compound: CC[C@H](C)[C@H](NC(=O)[C@H](CCCCN)NC(=O)[C@@H](NC(=O)[C@H](CCC(N)=O)NC(=O)[C@@H](N)CCCNC(=N)N)[C@@H](C)CC)C(=O)N[C@@H](Cc1c[nH]c2ccccc12)C(=O)N[C@@H](Cc1ccccc1)C(=O)N[C@@H](CCC(N)=O)C(=O)N[C@@H](CC(N)=O)C(=O)N[C@@H](CCCNC(=N)N)C(=O)N[C@@H](CCCNC(=N)N)C(=O)N[C@@H](CCSC)C(=O)N[C@@H](CCCCN)C(=O)N[C@@H](Cc1c[nH]c2ccccc12)C(=O)N[C@@H](CCCCN)C(=O)N[C@@H](CCCCN)C(N)=O [AntP, H2N-RQIKIWFQNRRMKWKK-CONH2]
influence of type of counterion on passive permeation [1]: unaffected by the type of counterion | permeation kinetics / fluorescence change (qualitative) [1]: biexponential kinetics were observed

Compound: H2N-DRVYIHPF-COOH (H-DRVYIHPF-OH) [AT 2, angiotensin peptide synthesized by SPPS]
pH of peptide salt in aq. solution [2]: 2.63

Compound: H2N-DRVYIHPFHL-COOH (H-DRVYIHPFHL-OH) [AT 1, angiotensin model peptide synthesized by SPPS]
pH of peptide salt in aq. solution [2]: 2.59 | Cl− content relative to expected value based on stoichiometric exchange ([3]; 10 mM HCl, single cycle): 99.0% | TFA− content of peptide salt ([3]; after one exchange cycle with 10 and 100 mM HCl, below LoQ of all techniques): below 1 % (w/w) | TFA− content of peptide salt ([3]; after purification, before exchange, HPLC-ELSD): 0.333 ± 0.008 mg TFA^− per mg peptide salt | TFA− content of peptide salt ([3]; control 0 mM HCl, after three exchange cycles): 0.215 ± 0.023 mg TFA^− per mg peptide salt | Cl− content of peptide salt ([3]; exchanged with 10 mM HCl, after a single cycle): 0.098 mg per 1 mg peptide salt | degradation products during counterion exchange ([4]; HCl up to 100 mM): No degradation products were observed | purity during counterion exchange (stability in aq. HCl) ([4]; all HCl concentrations (0–100 mM), over three exchange cycles): above 96%

Compound: H2N-RVYIHPF-COOH [AT 3]
pH of peptide salt in aq. solution [2]: 2.63

Compound: H2N-VYIHPF-COOH [AT 4]
pH of peptide salt in aq. solution [2]: 2.39
